Article PMC3049593 (British Journal of Cancer, 2011)

How the values were obtained:
PC3 tumours = assay: PC3 prostate xenograft model; type: in vivo, nude mice
Experimental: (§1) In the orthotopic Hep3b2.1-7 human liver cancer model, treatment of mice (n=10) began 14 days after inoculation of 2.5 × 10^6 cells. […] To initiate tumour xenografts, MDA-MB-231, PC3, Cal27 and HepG2 cells were injected s.c. into nude mice (n=8) at 4, 5, 2 and 2 × 10^7 cells ml^−1, respectively. […] In the B16F0 lung metastasis model, 2 × 10^5 cells were injected via the tail vein of C57Bl6 mice (n=8). […] Surface lung macrometastases were counted for each group (n=9) upon study termination. In the intrasplenic HT-29 xenograft model, 1 × 10^6 cells in 100 μl were injected into the spleen. […] Solid tumours were measured in two dimensions (length and width) and the tumour volume (cm^3) was calculated using the equation: V=length × width^2 × π/6. The anti-tumour activity was expressed as percent tumour growth inhibition (%TGI). Further details are available in Supplementary Methods. […]
(§2) antibody. […]
(§3) staining. For quantification, three independent visual fields (20x magnification) were chosen and positive stained spots or vessels with identifiable lumen were counted.
(§4) Angiogenesis inhibition and induction were calculated using the equations: […]
(§5) regimen both before and after tumour cell inoculation (days -6, -3, 0, +3, +6) or only after tumour cell inoculation (days 0, +3, +6). B16 cell (2x105) were inoculated via tail vein injections and mice were culled and assessed for lung metastases on day 12. […]

HepG2 tumours = assay: HepG2 liver xenograft model; type: in vivo, nude mice
Experimental: as §1, §2, §3, §4, §5

[1] = tested on: HT-29 tumours and metastases; assay: intrasplenic HT-29 colon xenograft spontaneous metastasis model; type: in vivo, mice
Experimental: as §1
once weekly or Sorafenib (60mg/kg, once daily, p.o.). The treatments were continued for three weeks. The lungs were excised from all mice at the time of culling for metastasis count determination. Surface lung macrometastases were counted for each group upon […]
In the HT-29 model, the lumbar region skin was sterilized with 5% tincture and 75% ethanol, respectively. One-cm-long incision was made to expose the spleen before 1×10^6 cells in 100 µL was injected into the spleen. […]
mg/kg) was administered to mice (n=12) each week (qw) over 8 weeks and surface liver and colon metastatic nodules were counted for each group (n=12) upon study termination. Spleen and liver weights were also measured as indirect assessment of […]
In relevant models, solid tumours were measured in two dimensions (length and width) and the tumour volume (mm3) calculated using the equation V = length × width2 × π/6.The anti-tumour activity was assessed by the comparison of the mean tumour volume of the treated groups to the mean tumour volume of the control group and expressed as the percent Tumour Growth Inhibition (TGI) using the equation: […]

B16 = assay: in vitro cytotoxicity (LC50); type: cell-based; details: read-out: LC50 (concentration lethal to 50% of cells)
[2] = toxicity / toxicology studies; type: in vivo
heparanase = target: heparanase; set-up: method as in Dredge et al, 2010; details: ref Dredge et al, 2010; read-out: Ki (heparanase inhibitor); cited from earlier work
[3] = tested on: angiogenesis (endothelial cells, rat aortic ring); set-up: method as in Dredge et al, 2010; details: endothelial cell assays in vitro and ex vivo rat aortic ring assay; ref Dredge et al, 2010; cited from earlier work
[4] = qw, 20 mg kg^−1, after 8th week of administration

Q: Which TGI (PC3 tumours; 20 mg kg^−1 once-weekly s.c.) does the source give for `CC(C)CCC[C@@H](C)[C@H]1CCC2C3CCC4C[C@@H](O[C@@H]5O[C@H](COS(=O)(=O)[O-])[C@@H](O[C@H]6O[C@H](COS(=O)(=O)[O-])[C@@H](O[C@H]7O[C@H](COS(=O)(=O)[O-])[C@@H](O[C@H]8O[C@H](COS(=O)(=O)[O-])[C@@H](OS(=O)(=O)[O-])[C@H](OS(=O)(=O)[O-])[C@H]8OS(=O)(=O)[O-])[C@H](OS(=O)(=O)[O-])[C@H]7OS(=O)(=O)[O-])[C@H](OS(=O)(=O)[O-])[C@H]6OS(=O)(=O)[O-])[C@H](OS(=O)(=O)[O-])[C@H]5OS(=O)(=O)[O-])CC[C@]4(C)C3CC[C@@]21C.[Na+].[Na+].[Na+].[Na+].[Na+].[Na+].[Na+].[Na+].[Na+].[Na+].[Na+].[Na+].[Na+]` (stereo partly drawn) [PG545] here?
A: The TGI was 74%.

Q: What about the TGI (PC3 tumours; 20 mg kg^−1 twice-weekly s.c.) of the same compound?
A: The TGI was 83%.

Q: What about the TGI (HepG2 tumours; 20 mg kg^−1 once-weekly s.c.) of the same compound?
A: The TGI was 55%.

Q: What about the TGI (HepG2 tumours; 20 mg kg^−1 twice-weekly s.c.) of the same compound?
A: Its TGI is 45%.

Q: What about the primary tumour growth ([1]; 20 mg kg^−1 qw over 8 weeks) of the same compound?
A: The primary tumour growth was “significantly reduced primary tumour growth”.

Q: What about the “TGI (colon metastases)” value [1, 4] of the same compound?
A: The value was 93%.

Q: What about the “TGI (liver metastases)” value [1, 4] of the same compound?
A: The value was 100%.

Q: What about the CC50 (B16) of the same compound?
A: Its CC50 is over 200000 nM.

Q: And the “activated partial thromboplastin time” value ([2]; high doses, toxicology studies, reversible (data not shown))?
A: Its value is “increased activated partial thromboplastin time”.

Q: What about the “body weight loss in other species” value ([2]; toxicity studies (data not shown)) of the same compound?
A: Its value is “did not lead to significant body weight loss”.

Q: And the Ki (heparanase)?
A: Its Ki is 6 nM.

Q: What about the angiogenesis inhibitor potency [3] of the same compound?
A: Its angiogenesis inhibitor potency is at most 1000 nM.
